Bridge positions count the residues as written; N and C are the ends. Primed or numbered codes have the meaning given here. Ends that are not written are not given here. I, II: the chains in the order shown. * marks the point of attachment. Biotin = O=C1N[C@H]2[C@H](CS[C@H]2CCCCC(=O)*)N1; BMH′ = not defined here
Legend:
[1] = system: Human keratinocytes (NHEK cell), IL-8 secretion; assay: IL-8 secretion by NHEK cells (ELISA); assay type: cell-based; details: for secretion amount of IL-8: FIG. 8, 50 μg/ml, deletion variants of b7; for secretion amount of IL-8 / IL-8 inducing activity: 16–20 hours; for IL-8 inducing activity: Table IV, 50 μg/ml, symbols not defined
Method: Human keratinocytes (NHEK cell, Clonetics, available from Sanko Jyun-yaku, Ltd.) were cultivated in a medium for proliferation (Clontics) comprising 30 μg/ml BPE, 0.1 ng/ml human EGF, 5 μg/ml insulin, 0.5 μg/ml hydrocortisone, 50 μg/ml gentamycin, and 50 ng/ml amphoterin. These cells were re-suspended at the concentration of 1×10^4 cells/ml in a medium wherein EGF, insulin, and hydrocortisone were removed from the above medium for proliferation, and then 100 μl of the suspension was placed on each well of a 96-well plate. At the same time of the plating of the cells, 5 μl of 1 mg/ml oligopeptide was added to the suspension so as to be final concentration of 50 μg/ml. After cultivation for 16–20 hours, the amount of IL-8 in the culture supernatants was measured by ELISA kit (ENDOGEN).

[2] = system: antigen of about 220 kDa present in new follicle (antigen of mAb27); assay: Skin tissues of maxilla of ICR mice incubated with test oligopeptide, Western blot with mAb 27; assay type: cell-based; details: for hair growth promoting activity (mAb 27 band stronger than control): Example 10, FIG. 4 and 5, BMH-treated oligopeptides of Example 9, 20 μCM
Method: The skin tissues of maxilla of ICR mice (pregnancy 12 days) were collected by stereoscopic microscope, and left and right sides were respectively recovered from 5 mice. 5 pieces of each of the thus collected left (for control) and right (for test oligopeptides) skins from 5 mice were respectively placed on 1 nuclepore membrane (pore diameter 8 μm; diameter 13 mm), and were set in such a way that the outside upturns by observing the samples with stereoscopic microscope. 500 μl of Dulbecco's MEM/Ham F12 medium containing 1% BSA was added to 2 wells of 24 well dish. The test oligopeptide in a solvent (PBS) was added in a final concentration of 20 μCM to one well, and solvent (PBS) was added in the same amount to the other well as a control. The oligopeptides synthesized in Example 9 were used as the test oligopeptides.
(§1) Each membrane having skin tissues thereon was launched on the solution in the above wells, and was incubated at 37° C. for 6 days. 5 pieces of tissue were recovered from the membrane into 100 μl of SDS sample buffer (SDS 0.02 g/ml, glycerol 0.2 g/ml, pH6.8), and dissolved by ultrasonic treatment. The control membrane was also treated similarly. The solution obtained by such a treatment was subjected to electrophoresis (35 mA, 1.5 hour) in SDS-PAGE (acrylamide 4–20%), and transferred to PVDF membrane, and incubated in Tris buffer containing 5% skim milk (TBST) for 1 hour. The membrane was reacted with mAb 27 (10 μg/ml in TBST) obtained in Example 2 for 1 hour, and was washed well with TBS. Then, peroxidase labeled anti-rat IgG (Amersham) (1/1000 diluted in TBST) was reacted as the second antibody, and the membrane was washed well with TBS. The intensity of the reaction of mAb 27 was examined using ECL kit (Amersham).
The skin tissues of maxilla of ICR mice (pregnancy 12 days) were collected by stereoscopic microscope, and left and right sides were respectively recovered from 5 mice. 5 pieces of each of the thus collected left (for control) and right (for test oligopeptides) skins from 5 mice were respectively placed on 1 nuclepore membrane (pore diameter 8 μm; diameter 13 mm), and were set in such a way that the outside upturns by observing the samples with stereoscopic microscope. 500 μl of Dalbecco's MEM/Ham F12 medium containing 1% BSA was added to 2 wells of 24 well dish. The test oligopeptide in a solvent (PBS) was added in a final concentration of 20 μM to one well, and solvent (PBS) was added in the same amount to the other well as a control. The unmodified and modified oligopeptides synthesized in the above (1) were used as the test oligopeptides.
as §1, with “Example 6” for “Example 2”
The skin tissues of maxilla of ICR mice (pregnancy 12 days) were collected by stereoscopic microscope, and left and right sides were respectively recovered from 5 mice. […]

[3] = system: transition from telogen to anagen (hair cycle); assay: Evaluation of hair growth promoting activity by in vivo method (shaved telogen mice, hair growth score); design: species or system C57BL/6 mice; details: for hair restoration compared with the control group (hair growth score): topical application until 38th day, FIGS. 6 and 7; for Hair growth Activity: Table IV, symbols not defined
Method: C3H and C57BL/6 mice are known to have sustained telogen for about 50 days from the 45th day after the birth to around the 95th day. Their hair cycle is easily judged based on the skin color changes, i.e., from pink in telogen to gray or black in anagen. A test for evaluating whether or not the administration the oligopeptides of the present invention promotes the transition from telogen to anagen was carried out using the mice. Seven weeks old (48 to 50-day old, female) C57BL/6 mice were purchased and hair of the back (about 3×2.5 cm^2) was carefully shaved with electric clippers for animals so as not to injure the skin, and the hair cycle was confirmed to be in telogen from the skin color. The oligopeptide solution prepared above was applied to five mice in each group, once a day and 5 days in a week in the amount of 0.2 ml until 38th day from the start of the test. The application was carried out by using a syringe without needle. Dipeptide (Ile-Lys) and tripeptide (Glu-Ile-Lys) of which N-terminal is biotinylated were mixed, and then added with the cross-linking agent to prepare a control solution.
Plural persons (two persons) observed the mice twice a week by naked eye for evaluation, and gave a 6-graded score depending on a ratio of hair restoration area based on the hair shaved area. At the same time, photographs were taken. Hair growth scores were calculated as follows. At first, the following score was given depending on a ratio of areas where the skin color changes to gray or black in the hair shaved area; 0–20%: 1, 20–40%: 2, 40–60%: 3, 60–80%:4, 80–100%: 5. The sum of the above scores in each group was determined as the hair growth score. The maximum value of the hair growth score of each group was 50 for each of the persons for judgment, and the maximum value of hair growth score was 100 because the judgment was made by two persons.

[4] = cited from earlier work
[5] = Example 11, position of Cys altered, synthesized as in Example 9

EQSCDQDE (Biotin-EQSCDQDE) [b7ΔN2]
secretion amount of IL-8 [1]: slightly decreased

IEQSCDQDE (Biotin-IEQSCDQDE) [b7ΔN1]
secretion amount of IL-8 [1]: slightly decreased

Lys-Ser-Ile-Glu-Gln-Ser-Cys-Asp-Gln-Asp-Glu (Biotin-KSIEQSCDQDE) [bk7]
IL-8 inducing activity compared with oligopeptide b7 ([1]; FIG. 9, Examples 17 and 18): almost the same IL-8 inducing activity as that of oligopeptide b7

QSCDQDE (Biotin-QSCDQDE) [b7ΔN3]
secretion amount of IL-8 [1]: slightly decreased

SICEQSD [SEQ ID NO:6]
hair growth promoting activity [2, 5]: showed a hair growth promoting activity

SICEQSDQDE [oligopeptide (C)]
hair growth promoting activity (mAb 27 band stronger than control) ([2]; 6 days): have a hair growth promoting activity

SIECQSD [SEQ ID NO:5]
hair growth promoting activity [2, 5]: showed a hair growth promoting activity

SIECQSDQ [oligopeptide (D)]
hair growth promoting activity (mAb 27 band stronger than control) ([2]; 6 days): had a hair growth promoting activity

SIECQSDQDE [oligopeptide (B)]
hair growth promoting activity (mAb 27 band stronger than control) ([2]; 6 days): have a hair growth promoting activity

SIEQCSD [SEQ ID NO:4]
hair growth promoting activity [2, 5]: showed a hair growth promoting activity

SIEQCSDQDE [oligopeptide (A)]
hair growth promoting activity (mAb 27 band stronger than control) ([2]; 6 days): have a hair growth promoting activity

SIEQS (Biotin-SIEQS) [b7ΔC5]
secretion amount of IL-8 [1]: significantly decreased

SIEQSC (Biotin-SIEQSC; also: Cys sulfhydryl blocked (group not given here)) [b7ΔC4]
secretion amount of IL-8 [1]: maintained

SIEQSCD (Biotin-SIEQSCD; also: Cys sulfhydryl blocked (group not given here)) [b7ΔC3]
secretion amount of IL-8 [1]: maintained

SIEQSCDQ (Biotin-SIEQSCDQ; also: Cys sulfhydryl blocked (group not given here)) [b7ΔC2]
secretion amount of IL-8 [1]: maintained

SIEQSCDQD (Biotin-SIEQSCDQD; also: sulfhydryl blocked) [b7ΔC1]
secretion amount of IL-8 [1]: maintained

SIEQSCDQDE [SEQ ID NO:84]
hair growth promoting activity ([3]; conclusion of Example 15): has hair growth promoting activity

b7: modified oligopeptide having biotin at the N-terminus of Ser-Ile-Glu-Gln-Ser-Cys-Asp-Gln-Asp-Glu (SEQ ID NO:84) (Biotin-SIEQSCDQDE)
hair restoration compared with the control group (hair growth score) ([3]; C57BL/6 mice): hair restoration was promoted until about 30 days from the start of the test
Hair growth Activity [3]: ◯
IL-8 inducing activity [1]: ⊚

heterodimer oligopeptide: heterodimer made with BMH from two different oligopeptides; b464 names SEQ ID NO:87 and SEQ ID NO:4, b490 oligopeptides (A) and (B) (chain 1 SIEQSCD; chain 2 SIEQCSD; linker I:6-II:5 via BMH′ (inferred))
hair growth promoting activity (mAb 27 band stronger than control) ([2]; 6 days): had also a hair growth promoting activity

ss7: S-S bridged oligopeptide prepared by reacting the oligopeptide (SEQ ID NO:84 series) with BMH; elsewhere called S-S bridged and biotinylated (SIEQSCDQDE; also: BMH cross-linked dimer, Cys attachment not placed, biotinylated, site not given here)
transition to anagen earlier than the control group ([3]; C57BL/6 mice, 0.2 ml of oligopeptide solution (0.15 mg/ml, 50% ethanol/PBS) once a day, 5 days in a week): ≥ 7 days
hair restoration compared with the control group (hair growth score) ([3]; C57BL/6 mice): hair restoration was promoted at any time until the hair grew and restored almost completely
Hair growth Activity [3]: ⊚
IL-8 inducing activity [1]: ⊚
hair growth promoting activity ([2]; Example 16): has hair growth promoting activity
band of mAb27 antigen versus control ([2]; Example 16, FIG. 13, 20 μM, 6 days): a stronger band was detected

B1: Native mammalian epimorphin: protein of 277 to 289 amino acids promoting the morphogenesis of epithelial tissue (protein, UniProt P32856 1-288, looked up)
Syntaxin-2: MRDRLPDLTACRKNDDGDTVVVVEKDHFMDDFFHQVEEIRNSIDKITQYVEEVKKNHSIILSAPNPEGKIKEELEDLNKEIKKTANKIRAKLKAIEQSFDQDESGNRTSVDLRIRRTQHSVLSRKFVEAMAEYNEAQTLFRERSKGRIQRQLEITGRTTTDDELEEMLESGKPSIFTSDIISDSQITRQALNEIESRHKDIMKLETSIRELHEMFMDMAMFVETQGEMINNIERNVMNATDYVEHAKEETKKAIKYQSKARRKKWIIIAVSVVLVAIIALIIGLSVGK
solubility in aqueous media such as saline [4]: almost insoluble

Reference: patent US7241731B2, “Oligopeptides for promoting hair growth” (Sumitomo Electric Industries, Ltd., priority 2000, dated 2007)
